“And” between values parts separate entries of the source, which are not always exact repeats. Identical values can stand only once. Like-named read-outs stand apart in the source and are kept apart here.
Experiments:
[1] = In vitro non-enzymatic hydrolysis in Krebs-Henseleit buffer; assay type: physicochemical; settings: for Hydrolysis rate constant (k): pH 7.4, 25° C., n=5; for half-life: pH 7.4, read-out: Half life (t1/2) (converted)
Protocol: These experiments were carried out both in Krebs-Henseleit buffer containing either no protein or 2% w/v BSA (bovine serum albumin, fraction V, Sigma) at pH 7.4 and 25±1° C.
Solutions of the derivatives in Krebs buffer (10 mL) was prepared in siliconised glass tubes. Each solution was sonicated for 5 minutes and centrifuged for 5 minutes (3000 g) at 25° C. to ensure maximum dissolution and to sediment any undissolved precipitate. About 7.5 mL of the supernatant was then transferred to a clean siliconised test tube and a 100 μL aliquot was removed and assayed. […] The rate of non-enzymatic hydrolysis (k) for each derivative was then estimated using the following equation: […]
where C1 is the concentration of the ester at any time (t), and C0 is the concentration of the ester at time zero. The half-life (t½) was determined using the formula: […]

[2] = system: in-situ perfused rat liver; assay: In-situ rat liver perfusion bolus studies, moments and dispersion model analysis (Example 3); assay type: in vitro ADME, Sprague-Dawley rats; settings: for MTTE (mean transit time of blood): MTTE=MTTW/(+1), =0.59; for CV^2 of reference solute / F (hepatic availability) of reference solute / MTT of reference solute: statistical moments analysis, n=12
Protocol: Mature female Sprague-Dawley rats were obtained from the University of Queensland Animal Breeding Facility and weighed between 180-270 grams. The animals were given access to a standard laboratory diet prior to experiment. Rats were anaesthetised by interperitoneal injection of pentobarbital sodium (60 mg/kg, Boehringer Ingelhein). […] The bile duct was cannulated with PE10 (Clay Adams, New Jersey). 0.025 gm/L taurocholic acid (Sigma Co., USA.) was dissolved in perfusate to stimulate bile production. The portal vein was then cannulated using a 16 G intravenous catheter and the liver was perfused via this cannula with 2% BSA Krebs-Henseleit bicarbonate buffer (pH 7.4) and oxygenated using a silastic tubing lung ventilated with carbogen (95% O2/5% CO2). The perfusion system used was non-recirculating and employed a peristaltic pump (Cole-Parmer, Illinois).
The animal was placed in a temperature controlled perfusion cabinet at 37° C. Liver viability was assessed by oxygen consumption, bile flow, diflunisal esters' extraction and macroscopic appearance.
Perfusions were made at 30 mL/min in each liver. After a 10 minute perfusion stabilization period, injectate (50 μL) containing Evans Blue (3 mg/mL) and [^3H]-water in a saturated solution of the particular O-acyl diflunisal ester or pregenerated diflunisal (which was injected as parent compound) in 2% BSA Krebs-Henseleit buffer, was injected into the liver with outlet samples collected via a fraction collector over one minute.
Aliquots (100 μL) of pooled perfusate samples were taken for Evans Blue spectrophotometric analysis and [^3H]-water scintillation counting before adjusting pH. These pooled samples were then acidified to pH 2.0 by addition of 1 M HCl and extracted into 2.5 volumes of ether. […] The ether fraction was then removed and reduced to approximately 100 μL by evaporation under air and prepared as before for HPLC analysis. A known concentration of each buffer solution of ester was concurrently extracted and assayed with the perfusate samples to assess the degree of spontaneous hydrolysis occurring over the duration of the extraction procedure. This non-enzymatic hydrolysis was converted for in the analysis. The total recovery of diflunisal esters extracted using this technique was >90%.
The F, MTT and CV^2 for the diflunisal esters (or pregenerated DF) and the reference solutes (EB and [^3H]-water) were determined from the outflow concentration versus time profile using equation (1)-(4), with the assistance of the Moments Calculator 2.2 program for Macintosh computer developed by Robert Purves (Purves RD, 1994, J. Pharm. Sci. 83 202-205). [formula] [formula]
where Q is the perfusate flow rate, D is the dose of diflunisal esters administered. The area under the concentration-time curve (AUC) and the first moment curve (AUMC) were estimated by the trapezoidal rule integration with appropriate modification for tail (Mellick et al., 1996, submitted for publication). [formula]
The moment data was further examined using the dispersion model of hepatic elimination which defines F of an extracted solute by the equation (Roberts et al., 1990, J. Pharmacokin. Biopharm. 18 209-234): [formula]
a={square root over (1+4RNDN)} (6)
DN is the dispersion number which describes the spread of solute residence times in the liver following bolus input and equal half the normalized variance for a non-extracted reference indicator [formula]
RN is the efficiency number which characterises the elimination of solute by the liver and is defined by the equation: [formula]
(Gillette, 1971, Ann. N. Acad. Sci. 179 43-61)), and Q is the perfusate flow rate. If F for a solute and the CV^2 for a non-extracted reference solute (eg. EB) are known, we can solve for “a” using equation (5) and then for “RN” using equation (6).
The dispersion model expressions (Roberts et al., 1990) for MTT and CV^2 are presented in equations (8) and (9). [formula] [formula] […]

[3] = fitting to one-compartment dispersion model, individual curves 1-12 and Mean S.E. (n = 12)
[4] = fitting to one-compartment dispersion model, individual curves 1-12 and Mean S.E. (n = 12), listed as 3H -water

SMILES	Hydrolysis rate constant (k) ([1]; Krebs-Henseleit buffer 0% BSA, U = Undetectable)	Hydrolysis rate constant (k) ([1]; Krebs-Henseleit buffer 2% BSA)	half-life ([1]; bovine, Krebs-Henseleit buffer with 2% w/v BSA)	half-life ([1]; protein-free Krebs-Henseleit buffer, Krebs-Henseleit buffer 0% BSA, first half life, t1/2=0.693/k, U = Undetectable)	MTTE (mean transit time of blood) ([2]; individual curves 1-12 and Mean S.E. (n = 12))	MTTE (mean transit time of blood) ([2]; individual curves 1-12 and Mean S.E. (n = 12), listed as 3H -water)	DN (dispersion number) [2, 3]	MTTW (mean transit time of the whole liver) [2, 3]	DN (dispersion number) [2, 4]	MTTW (mean transit time of the whole liver) [2, 4]	DN (dispersion number) ([2]; from CV^2 of the moments analysis)	CV^2 of reference solute [2]	F (hepatic availability) of reference solute [2]	MTT of reference solute [2]
CCCCCCC(=O)Oc1ccccc1C(=O)O [Compound C7SA, n-heptanoylsalicylic acid]	0.0052 ± 0.0032 hour^1	0.0013 ± 0.0005 hour^1	22.2 days	5.55 days	–	–	–	–	–	–	–	–	–	–
[3H]O[3H] [[^3H]-water]	–	–	–	–	7.36 ± 0.87 s	10.09 s and 9.52 s and 11.67 s and 13.40 s and 5.11 s and 4.99 s and 4.23 s and 4.95 s and 6.39 s and 6.33 s and 5.52 s and 6.08 s	0.29±0.03	11.70 ± 1.39 s	0.33 and 0.23 (3×) and 0.27 and 0.36 and 0.22 and 0.58 and 0.24 (2×) and 0.26	16.05 s and 15.15 s and 18.56 s and 21.31 s and 8.12 s and 7.94 s and 6.73 s and 7.87 s and 10.16 s and 10.07 s and 8.78 s and 9.66 s	0.36±0.04	0.71±0.08	0.87±0.02	14.42 ± 0.79 s
Cc1cc(-c2ccc(/N=N/c3ccc4c(S(=O)(=O)O)cc(S(=O)(=O)O)c(N)c4c3O)c(C)c2)ccc1/N=N/c1ccc2c(S(=O)(=O)O)cc(S(=O)(=O)O)c(N)c2c1O [EB]	–	–	–	–	–	–	–	–	–	–	–	1.15±0.11	0.95±0.04	9.04 ± 0.65 s
